In ChEMBL document CHEMBL1152159, “Possible involvement of radical intermediates in the inhibition of cysteine proteases by allenyl esters and amides” (Bioorg Med Chem Lett, 2008):
Each block holds one molecule with its values, some of them ahead of it.

How the values were obtained:
[1] = system: Rattus norvegicus; assay: Inhibition of water-immersion stress-induced ulcer formation in rat at 3 mg/kg; assay type: functional
[2] = target: Cathepsin B (Homo sapiens, UniProt P07858); assay: Inhibition of cathepsin B in oxygen free condition
[3] = system: Rattus norvegicus; assay: Inhibition of water-immersion stress-induced ulcer formation in rat at 1 mg/kg; assay type: functional
[4] = system: Rattus norvegicus; assay: Inhibition of water-immersion stress-induced ulcer formation in rat at 10 mg/kg; assay type: functional
[5] = Inhibition of urease
[6] = system: Rattus norvegicus; assay: Inhibition of water-immersion stress-induced ulcer formation in rat at 30 mg/kg; settings: read-out: INH
[7] = Dissociation constant, pKa of the compound; assay type: physicochemical

SMILES: NC(N)=Nc1nc(CSCC/C(N)=N/S(N)(=O)=O)cs1 [FAMOTIDINE]
- inhibition in vivo at 3 mg/kg [1]: 59%

- IC50 [2]: 232 µM
- IC50 [5]: 1.1 µM
SMILES: CCOC(=O)C(C)=C=C(c1ccccc1)c1ccccc1
- inhibition in vivo at 3 mg/kg [1]: 52%
- inhibition in vivo at 1 mg/kg [3]: 40%
- inhibition in vivo at 10 mg/kg [4]: 87%

SMILES: CN/C(=N\CCSCc1nc[nH]c1C)NC#N [CIMETIDINE]
- inhibition in vivo at 30 mg/kg [6]: 74%

- pKa [7]: 8.7
SMILES: N[C@@H](CCC(=O)N[C@@H](CS)C(=O)NCC(=O)O)C(=O)O [GLUTATHIONE]
